Target: PBPA (penicillin-binding protein A) (Mycobacterium tuberculosis, UniProt P9WKD1)
Sequence (P9WKD1 34-491): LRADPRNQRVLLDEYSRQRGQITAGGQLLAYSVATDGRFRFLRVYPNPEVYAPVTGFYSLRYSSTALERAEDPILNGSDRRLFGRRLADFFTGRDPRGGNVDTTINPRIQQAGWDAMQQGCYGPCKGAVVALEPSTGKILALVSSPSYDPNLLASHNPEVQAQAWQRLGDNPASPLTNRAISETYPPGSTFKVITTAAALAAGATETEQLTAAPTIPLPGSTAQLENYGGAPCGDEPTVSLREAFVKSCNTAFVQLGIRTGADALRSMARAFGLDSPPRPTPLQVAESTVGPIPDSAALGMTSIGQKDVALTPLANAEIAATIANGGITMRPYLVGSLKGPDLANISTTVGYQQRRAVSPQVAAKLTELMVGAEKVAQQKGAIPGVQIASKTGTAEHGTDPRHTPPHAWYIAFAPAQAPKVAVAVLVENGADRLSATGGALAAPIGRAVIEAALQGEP

With `C[C@@H](O)[C@H]1C(=O)N2C(C(=O)O)=C(SCCN=CN)C[C@H]12` [Imipenem] the “Method / Intrinsic fluorescence” value was 3,980 ± 180 M^-1 sec^-1.

Reference: PMC3327805 (Journal of Molecular Biology, 2012)
